Legend:
BaF3(WT) = BaF3(WT) (Homo sapiens, UniProt P00519); test: WST (CCK-8) anti-proliferation assay, BaF3 WT cells; conditions: read-out: BaF3(WT); anti-proliferative IC50, 72 h treatment, CCK-8, BaF3 WT
BaF3(T315I) = BaF3(T315I) (Homo sapiens, UniProt P00519, T315I, cells depend on it); test: WST (CCK-8) anti-proliferation assay, BaF3 T315I cells; conditions: read-out: BaF3(T315I); anti-proliferative IC50, 72 h treatment, CCK-8, BaF3 T315I

GI50 (BaF3(WT)) | GI50 (BaF3(T315I)) | Structure (SMILES)
0.019 µM | 0.131 µM | CC(C)N1c2c(cc(C(=O)Nc3ccc(OC(F)(F)Cl)cc3)cc2-c2cncnc2)CC1C(=O)N(C)C (stereo not drawn) [VII-15, N5-(4-(chlorodifluoromethoxy)phenyl)-1-isopropyl-N2,N2-dimethyl-7-(pyrimidin-5-yl)indoline-2,5-dicarboxamide]
0.017 µM | 0.146 µM | CC(C)N1c2c(cc(C(=O)Nc3ccc(OC(F)(F)Cl)cc3)cc2-c2cncnc2)CC1C(=O)N1CCOCC1 (stereo not drawn) [VII-23, N-(4-(chlorodifluoromethoxy)phenyl)-1-isopropyl-2-(morpholine-4-carbonyl)-7-(pyrimidin-5-yl)indoline-5-carboxamide]
0.108 µM | 0.91 µM | O=C(Nc1ccc(OC(F)(F)Cl)cc1)c1cc2c(c(-c3ccn[nH]3)c1)C1(CC(O)C(O)C1)C(=O)N2 (stereo not drawn) [V-9, N-(4-(chlorodifluoromethoxy)phenyl)-3,4-dihydroxy-2′-oxo-4′-(1H-pyrazol-5-yl)spiro[cyclopentane-1,3′-indoline]-6′-carboxamide]
0.022 µM | 0.176 µM | CC(=O)N1CC(C)(C)c2c(-c3ccn[nH]3)cc(C(=O)Nc3ccc(OC(F)(F)Cl)cc3)cc21 [III-4, 1-acetyl-N-(4-(chlorodifluoromethoxy)phenyl)-3,3-dimethyl-4-(1H-pyrazol-5-yl)indoline-6-carboxamide]
0.045 µM | 0.071 µM | CC1(C)C(=O)Nc2cc(C(=O)Nc3ccc(OC(F)(F)Cl)cc3)cc(-c3ccn[nH]3)c21 [V-1, N-(4-(chlorodifluoromethoxy)phenyl)-3,3-dimethyl-2-oxo-4-(1H-pyrazol-5-yl)indoline-6-carboxamide]
0.11 µM | 0.921 µM | CN1CCC2(CC1)C(=O)Nc1cc(C(=O)Nc3ccc(OC(F)(F)Cl)cc3)cc(-c3ccn[nH]3)c12 [V-10, N-(4-(chlorodifluoromethoxy)phenyl)-1′-methyl-2-oxo-4-(1H-pyrazol-5-yl)spiro[indoline-3,4′-piperidine]-6-carboxamide]
0.023 µM | 0.468 µM | O=C(Nc1ccc(OC(F)(F)Cl)cc1)c1cc2c(c(-c3ccn[nH]3)c1)N(C1CCC1)CC2 [VII-8, N-(4-(chlorodifluoromethoxy)phenyl)-1-cyclobutyl-7-(1H-pyrazol-5-yl) indoline-5-carboxamide]
0.173 µM | 1.19 µM | CC(C)N1c2c(cc(C(=O)Nc3ccc(OC(F)(F)Cl)cc3)cc2-c2ccn[nH]2)CC1CC(=O)N1CCOCC1 (stereo not drawn) [VII-35, N-(4-(chlorodifluoromethoxy)phenyl)-1-isopropyl-2-(2-morpholino-2-oxoethyl)-7-(1H-pyrazol-5-yl)indoline-5-carboxamide]
0.045 µM | 0.648 µM | CC(C)N1c2c(cc(C(=O)Nc3ccc(OC(F)(F)Cl)cc3)cc2-c2ccn[nH]2)CC1CO (stereo not drawn) [VII-34, N-(4-(chlorodifluoromethoxy)phenyl)-2-(hydroxymethyl)-1-isopropyl-7-(1H-pyrazol-5-yl)indoline-5-carboxamide]
0.043 µM | 0.292 µM | O=C(Nc1ccc(OC(F)(F)Cl)cc1)c1cc2c(c(-c3ccn[nH]3)c1)C1(CC=CC1)C(=O)N2 [V-4, N-(4-(chlorodifluoromethoxy)phenyl)-2′-oxo-4′-(1H-pyrazol-5-yl)spiro[cyclopentane-1,3′-indolin]-3-ene-6′-carboxamide]
0.022 µM | 0.136 µM | O=C(Nc1ccc(OC(F)(F)Cl)cc1)c1cc2c(c(-c3ccn[nH]3)c1)C1(CCCC1)C(=O)N2 [V-3, N-(4-(chlorodifluoromethoxy)phenyl)-2′-oxo-4′-(1H-pyrazol-5-yl)spiro[cyclopentane-1,3′-indoline]-6′-carboxamide]
0.313 µM | 1.01 µM | CC(C)N1C(=O)C(C)(C)c2cc(C(=O)Nc3ccc(OC(F)(F)Cl)cc3)cc(-c3ccn[nH]3)c21 [VIII-3, N-(4-(chlorodifluoromethoxy)phenyl)-1-isopropyl-3,3-dimethyl-2-oxo-7-(1H-pyrazol-5-yl)indoline-5-carboxamide]
0.034 µM | 0.295 µM | O=C(Nc1ccc(OC(F)(F)Cl)cc1)c1cc2c(c(-c3ccn[nH]3)c1)N(C1CC1)CC2 [VII-5, N-(4-(chlorodifluoromethoxy)phenyl)-1-cyclopropyl-7-(1H-pyrazol-5-yl) indoline-5-carboxamide]
0.033 µM | 3.11 µM | CC1CN(C(C)C)c2c(cc(C(=O)Nc3ccc(OC(F)(F)Cl)cc3)cc2-c2ccn[nH]2)O1 (stereo not drawn) [IX-4, N-(4-(chlorodifluoromethoxy)phenyl)-4-isopropyl-2-methyl-5-(1H-pyrazol-5-yl)-3,4-dihydro-2H-benzo[b][1,4]oxazine-7-carboxamide]
0.359 µM | 1.99 µM | CC(C)N1C(=O)C(C)(C)c2cc(C(=O)Nc3ccc(OC(F)(F)Cl)cc3)cc(-c3cncnc3)c21 [VIII-2, N-(4-(chlorodifluoromethoxy)phenyl)-1-isopropyl-3,3-dimethyl-2-oxo-7-(pyrimidin-5-yl)indoline-5-carboxamide]
0.308 µM | 2.16 µM | CC(C)N1c2c(cc(C(=O)Nc3ccc(OC(F)(F)Cl)cc3)cc2-c2ccn[nH]2)CC1C(=O)NCCN(C)C (stereo not drawn) [VII-32, N5-(4-(chlorodifluoromethoxy)phenyl)-N2-(2-(dimethylamino)ethyl)-1-isopropyl-7-(1H-pyrazol-5-yl)indoline-2,5-dicarboxamide]
0.078 µM | 2.06 µM | CN1CC(C)(C)c2c(-c3ccn[nH]3)cc(C(=O)Nc3ccc(OC(F)(F)Cl)cc3)cc21 [III-2, N-(4-(chlorodifluoromethoxy)phenyl)-1,3,3-trimethyl-4-(1H-pyrazol-5-yl)indoline-6-carboxamide]
0.132 µM | 2.38 µM | Cc1ccc(-c2cc(C(=O)Nc3ccc(OC(F)(F)Cl)cc3)cc3c2C(C)(C)N(C)C3=O)s1 [IV-3, N-(4-(chlorodifluoromethoxy)phenyl)-1,1,2-trimethyl-7-(5-methylthiophen-2-yl)-3-oxoisoindoline-5-carboxamide]
1.69 µM | 3.86 µM | CCC1c2cc(C(=O)Nc3ccc(OC(F)(F)Cl)cc3)cc(-c3ccn[nH]3)c2N(C(C)C)C1CNC (stereo not drawn) [VII-24, N-(4-(chlorodifluoromethoxy)phenyl)-3-ethyl-1-isopropyl-2-((methylamino)methyl)-7-(1H-pyrazol-5-yl)indoline-5-carboxamide]
0.103 µM | 3.18 µM | Cc1cn(C(C)C)c2c(-c3cncnc3)cc(C(=O)Nc3ccc(OC(F)(F)Cl)cc3)cc12 [XII-5, N-(4-(chlorodifluoromethoxy)phenyl)-1-isopropyl-3-methyl-7-(pyrimidin-5-yl)-1H-indole-5-carboxamide]
0.113 µM | 0.144 µM | CN1CCc2cc(C(=O)Nc3ccc(OC(F)(F)Cl)cc3)cc(-c3ccn[nH]3)c21 [VII-7, N-(4-(chlorodifluoromethoxy)phenyl)-1-methyl-7-(1H-pyrazol-5-yl)indoline-5-carboxamide]
0.077 µM | 0.107 µM | CN1C(=O)c2cc(C(=O)Nc3ccc(OC(F)(F)Cl)cc3)cc(-c3cccnc3)c2C1(C)C [IV-9, N-(4-(chlorodifluoromethoxy)phenyl)-1,1,2-trimethyl-3-oxo-7-(pyridin-3-yl)isoindoline-5-carboxamide]
0.403 µM | 4.96 µM | CS(=O)(=O)N1CCc2cc(C(=O)Nc3ccc(OC(F)(F)Cl)cc3)cc(-c3ccn[nH]3)c21 [VII-9, N-(4-(chlorodifluoromethoxy)phenyl)-1-(methylsulfonyl)-7-(1H-pyrazol-5-yl) indoline-5-carboxamide]
0.026 µM | 0.091 µM | CC(C)N1CCc2cc(C(=O)Nc3ccc(OC(F)(F)Cl)cc3)cc(-c3ccn[nH]3)c21 [VII-1, N-(4-(chlorodifluoromethoxy)phenyl)-1-isopropyl-7-(1H-pyrazol-5-yl)indoline-5-carboxamide]
0.112 µM | 0.123 µM | O=C(Nc1ccc(OC(F)(F)Cl)cc1)c1cc2c(c(-c3ccn[nH]3)c1)N(C1CC(CO)C1)CC2 (stereo not drawn) [VII-12, N-(4-(chlorodifluoromethoxy)phenyl)-1-(3-(hydroxymethyl)cyclobutyl)-7-(1H-pyrazol-3-yl)indoline-5-carboxamide]
0.165 µM | 2.18 µM | CCC1c2cc(C(=O)Nc3ccc(OC(F)(F)Cl)cc3)cc(-c3ccn[nH]3)c2N(C(C)C)C1CO (stereo not drawn) [VII-20, N-(4-(chlorodifluoromethoxy)phenyl)-3-ethyl-2-(hydroxymethyl)-1-isopropyl-7-(1H-pyrazol-5-yl)indoline-5-carboxamide]
0.119 µM | 3.25 µM | CC1CN(C(C)C)c2cc(C(=O)Nc3ccc(OC(F)(F)Cl)cc3)cc(-c3ccn[nH]3)c21 (stereo not drawn) [III-1, N-(4-(chlorodifluoromethoxy)phenyl)-1-isopropyl-3-methyl-4-(1H-pyrazol-5-yl)indoline-6-carboxamide]
0.028 µM | 0.278 µM | CNC(=O)C1Cc2cc(C(=O)Nc3ccc(OC(F)(F)Cl)cc3)cc(-c3cncnc3)c2N1C(C)C (stereo not drawn) [VII-16, N5-(4-(chlorodifluoromethoxy)phenyl)-1-isopropyl-N2-methyl-7-(pyrimidin-5-yl)indoline-2,5-dicarboxamide]
0.324 µM | 1.54 µM | CN(C)CCN1C(=O)C(C)(C)c2c(-c3ccn[nH]3)cc(C(=O)Nc3ccc(OC(F)(F)Cl)cc3)cc21 [V-7, N-(4-(chlorodifluoromethoxy)phenyl)-1-(2-(dimethylamino)ethyl)-3,3-dimethyl-2-oxo-4-(1H-pyrazol-5-yl)indoline-6-carboxamide]
0.128 µM | 0.726 µM | CC(C)n1cc(Cl)c2cc(C(=O)Nc3ccc(OC(F)(F)Cl)cc3)cc(-c3cncnc3)c21 [XII-4, 3-chloro-N-(4-(chlorodifluoromethoxy)phenyl)-1-isopropyl-7-(pyrimidin-5-yl)-1H-indole-5-carboxamide]

Source: US20220332701A1, “HETEROCYCLIC COMPOUNDS AS BCR-ABL INHIBITORS” (ASCENTAGE PHARMA (SUZHOU) CO., LTD., priority 2019, published 2022)
